We go through 9 compounds from patent US8318741B2, “Therapeutic compositions and methods” (The Texas A & M University System, priority 2005, dated 2012).

Read-outs that look alike come from different tables or passages of the source. Marks after values point to notes of the source that are not given here.

The subject of one data set is guinea pigs. The following applies: known before the Draize test; cited from earlier work.
The test system of data set [1] is trabeculectomy failure caused by inflammation. Details: species or system Dutch Belted rabbits. The following applies: rabbit, in vivo.
In data set [2] the test system is choroidal neovascularization in rat eyes.
Data set [3] relates to carrageenin induced inflammation. Nature of the data set: Carrageenin-induced inflammation (paw edema). The class given is in vivo, Sprague Dowley rats. The protocol:
Forty female Sprague Dowley rats weighing 164±16 g were used for the experiments. The test and control groups were assigned randomly. Carrageenin (0.1 mL of 1% solution) was injected into the plantar surface of the rat hind paw to induce inflammation. Ten minutes before carrageenin injection, 8 mL of water administered ig. […] The changes in volume of the inflamed edematous foot were measured by the volume of water displaced and recorded at 0, 0.5, 1, 2, 4, and 6 h after the carrageenin injection.
Background: The carrageenan paw model is a standard test of acute inflammation.

The subject of a further data set is mice. Nature of the data set: LD50 determination / acute oral toxicity. The class given is in vivo. Here is the method: LD50 determination: For each dose, 20 mice of either sex, weighing 18-20 g were used to determined the LD50 according to the method of Litchfield & Wilcoxon, J. Pharmacol. Exp. Ther. 96:99-113 (1949). Animals were housed in an animal room at 25° C. and 70% relative humidity. The light cycle was set for 12 h light and 12 h darkness.

In data set [4] the test system is ocular hypertensive rabbit eyes. Nature of the data set: Choroidal blood flow in ocular hypertensive rabbit eyes (colored microspheres). The class given is in vivo, New Zealand white rabbits. The conditions noted are these: for Choroidal Blood Flow, 30 min / Choroidal Blood Flow, 60 min / Choroidal Blood Flow, 120 min / Choroidal Blood Flow, 180 min / Time after administration over which the action on choroidal blood flow lasted: 50 μl, 1% topically; for Choroidal Blood Flow, 30 min / Choroidal Blood Flow, 60 min / Choroidal Blood Flow, 120 min / Choroidal Blood Flow, 180 min: vehicle controls at 100%, mean ± SD, N = 6.

In another data set the test system is rat eyes. Nature of the data set: Retinal function recovery after ischemic insult in rat eyes (ERG b-wave). The conditions noted are these: 10 mg/kg ip; for Retinal Function Recovery After Ischemic Insult, Treated: Mean ± SD, N = 6; for Retinal Function Recovery, Net increase (%): treated versus control.
The next data set relates to IL-1 induced uveitis. Nature of the data set: Interleukin-1 induced uveitis. The class given is in vivo, Sprague-Dawley rats. The following applies: 20 mg/kg t.i.d.
Setting [5] is: at various dose levels, AMD rat model.
Setting [6] is: N-nitro-azoles and C-nitropyrazoles, 30 min.
The mark [7] stands for this setting: N-nitro-azoles and C-nitropyrazoles.
[8] abbreviates: N-Nitropyrazoles and C-Nitropyrazoles, b-wave recovery after 30 min ischemia.
The mark [9] stands for this setting: N-Nitropyrazoles and C-Nitropyrazoles.
The mark [10] stands for this setting: Flavonoids, 30 min after administration.

In the case of `CC1(Br)CSC(=Nc2ccccc2)N(c2ccccc2)C1=O` (stereo not shown) [CK-17, 5-bromo-5-methyl-3-phenyl-2-phenylimino-1,3-thiazinan-4-one], in the data set on guinea pigs, the Skin irritation result was “did not produce skin irritation”. Further, in data set [1], the “Delay of trabeculectomy failure” value is “prolonged the appearance of trabeculectomy failure” and the “Delay of trabeculectomy failure relative to prednisolone” value is reported as “more effective than prednisolone”. Moreover, in data set [2] (rat, in vivo, ip), the “Effective dose to inhibit CNV formation” value turned out to be 30 mg/kg. For the same compound, in data set [3] (carrageenin induced inflammation), the “Potency relative to aspirin” value is recorded as “about 10 times”. The “Inhibition of carrageenin induced inflammation” value in data set [3] (ip 3 times before carrageenin) is “very effective in inhibiting carrageenin induced inflammation”. Besides, the Toxic response entry in the data set with mice (20 g/kg given orally, observed at least 7 days) is reported as “did not cause any toxic response”. Besides, in the data set with mice (orally, extrapolated to man), the “LD50 equivalent for man” value is given as ≥ 1,400 g/70 kg.

Regarding `CC(C)(C)NC[C@@H](O)COc1nsnc1N1CCOCC1` [D-Timolol, (2R)-1-[(4-morpholin-4-yl-1,2,5-thiadiazol-3-yl)oxy]-3-(tert-butylamino)propan-2-ol], the “Inhibition of CNV formation” value in data set [2] (15 mg/kg i.p. once a day for 4 weeks) was “effective in inhibiting some CNV formation but not as potent as hydralazine or guanabenz”; in data set [2] (setting [5]), “potent inhibition of CNV formation”.

Take `CONC(=O)c1ccn([N+](=O)[O-])n1` [DN-6, N-methoxy-1-nitro-1H-pyrazole-3-carboxamide]: the “Choroidal Blood Flow, 30 min” value in data set [4] (setting [6]) is 56.9 ± 17.5^e %. Moreover, in data set [4] (setting [7]), the “Choroidal Blood Flow, 60 min” value came out at 61.8 ± 20.9 %; the “Choroidal Blood Flow, 120 min” value was 88.3 ± 34.1 %; the “Choroidal Blood Flow, 180 min” value was 128.5 ± 60.0 %. For the same compound, the “Retinal Function Recovery After Ischemic Insult, Treated” value in the data set on rat eyes (setting [8]) came out at 64.0 ± 24.9 %. Further, in the data set on rat eyes (setting [9]), the “Retinal Function Recovery, Net increase (%)” value is reported as 94.5%.

As to `O=C(O)c1ccn([N+](=O)[O-])n1` [DN-7, 1-nitro-1H-pyrazole-3-carboxylic acid], in data set [4] (setting [6]), the “Choroidal Blood Flow, 30 min” value is 42.0 ± 13.7%. Further, in data set [4] (setting [7]), the “Choroidal Blood Flow, 60 min” value is given as 57.2 ± 3.7 %; the “Choroidal Blood Flow, 120 min” value is listed as 80.5 ± 23.1 %; the “Choroidal Blood Flow, 180 min” value is listed as 87.3 ± 29.6 %. Besides, in the data set on rat eyes (setting [8]), the “Retinal Function Recovery After Ischemic Insult, Treated” value amounted to 71.4 ± 20.2 %. In addition, the “Retinal Function Recovery, Net increase (%)” value in the data set with rat eyes (setting [9]) is recorded as 117.0%.

For the compound `NC(N)=NN=Cc1c(Cl)cccc1Cl` [Guanabenz, 2-[(2,6-dichlorophenyl)methylideneamino]guanidine], the “Inhibition of CNV formation” value in data set [2] (20 mg/kg i.p. once a day for 4 weeks, eight laser lesions) is on record as “All eight CNV formations were inhibited”; in data set [2] (20 mg/kg i.p. once a day for 4 weeks, eight laser lesions, listed as guanabenz) it was “inhibition of CNV formation”; in data set [2] (setting [5]) it was “potent inhibition of CNV formation”.

Consider `NNc1nncc2ccccc12` [Hydralazine, phthalazin-1-ylhydrazine], for which the “Inhibition of CNV formation” value in data set [2] (5 mg/kg i.p. once a day for 4 weeks, eight laser lesions) is recorded as “four out of eight”; in data set [2] (10 mg/kg i.p., eight laser lesions), “inhibited all CNV formation effectively”; in data set [2] (10 mg/kg i.p., eight laser lesions, listed as hydralazine), “inhibition of CNV formation”; in data set [2] (setting [5]) it was “potent inhibition of CNV formation”.

Regarding `O=C1CC(c2ccc(O)cc2)Oc2cc(O)cc(O)c21` (stereo not shown) [Naringenin, 5,7-dihydroxy-2-(4-hydroxyphenyl)chroman-4-one], the “Time after administration over which the action on choroidal blood flow lasted” value in data set [4] is listed as “at least 2 hrs”. Moreover, the “Choroidal Blood Flow, 30 min” value in data set [4] (setting [10]) is on record as 102.5 ± 22.0^e* %. For the same compound, in data set [4] (Flavonoids), the “Choroidal Blood Flow, 60 min” value came out at 226.1 ± 55.0 %; the “Choroidal Blood Flow, 120 min” value was 124.2 ± 74.5 %; the “Choroidal Blood Flow, 180 min” value was 137.4 ± 712%. In data set [4] (after drug administration), the “Onset / latent period of the increase of choroidal blood flow” value was determined as 30 min and the “Time of peak effect on choroidal blood flow” value is reported as 60 min. Besides, the “Increase of choroidal blood flow at the peak, of the original blood flow” value in data set [4] (at the peak (60 min after drug administration)) is on record as “more than 200%”. In data set [2] (30 mg/kg i.p., eight laser lesions), the “Inhibition of CNV formation” value is given as “marked inhibition of CNV formation”. In data set [2] (setting [5]), the “Inhibition of CNV formation” value is “potent inhibition of CNV formation”. For the same compound, the “Retinal Function Recovery After Ischemic Insult, Treated” value in the data set on rat eyes (Flavonoids, b-wave recovery relative to original level after 30 min ischemia) stood at 54.0 ± 17.8 %. For the same compound, in the data set with rat eyes (Flavonoids), the “Retinal Function Recovery, Net increase (%)” value is reported as 66.1%.

For the compound `O=c1c(-c2ccc(O)cc2)coc2c([C@@H]3O[C@H](CO)[C@@H](O)[C@H](O)[C@H]3O)c(O)ccc12` [Puerarin], in data set [4], the “Time after administration over which the action on choroidal blood flow lasted” value is above 3 h. Besides, in data set [4] (setting [10]), the “Choroidal Blood Flow, 30 min” value is 30.9 ± 7.7%. In data set [4] (Flavonoids), the “Choroidal Blood Flow, 60 min” value came to 114.9 ± 21.5 %; the “Choroidal Blood Flow, 120 min” value was found to be 160.8 ± 70.7 %; the “Choroidal Blood Flow, 180 min” value is given as 127.4 ± 65.5 %. Besides, the “Start of action on choroidal blood flow” value in data set [4] (after administration) is 1 h. Besides, the “Retinal Function Recovery After Ischemic Insult, Treated” value in the data set with rat eyes (Flavonoids, b-wave recovery relative to original level after 30 min ischemia, 10 mg/kg) came to 90.0 ± 17.2 %. The “Retinal Function Recovery After Ischemic Insult, Treated” value in the data set with rat eyes (Flavonoids, b-wave recovery relative to original level after 30 min ischemia, listed as puerarin, 10 mg/kg) is on record as 90%. The “Retinal Function Recovery, Net increase (%)” value with rat eyes (Flavonoids) is reported as 190.3%.

Consider `C[C@]12C=CC(=O)C=C1CC[C@@H]1[C@@H]2[C@@H](O)C[C@@]2(C)[C@H]1CC[C@]2(O)C(=O)CO` [prednisolone], for which the “Minimal dose required to produce inhibition of CNV formation” value in data set [2] (i.p.) was 3 mg/kg. Moreover, in the data set with IL-1 induced uveitis, the “Blockade of IL-1 induced uveitis” value is given as “blocked effectively”.
